Measured values reported in patent US20040005648A1, “PYK2 related products and methods” (Sugen, Inc., priority 1994, published 2004).

System: PYK-2
Assay: Tyrosine phosphorylation of PYK-2 in NIH3T3 cell lines that overexpress PYK-2
Assay type: cell-based, mouse
Settings: NIH3T3 cells overexpressing PYK-2 / PYK-2-HA; TPA 6 μM, 15 min at 37° C.
Experimental: Stable cell lines of NIH3T3 that overexpress PYK2 were established by contransfection of PYK2 subcloned into pLSV together with pSV2neo utilizing lipofectamine reagent (GIBCO BRL). Following transfection the cells were grown in Dulbecco's modified Eagle's medium containing 10% fetal bovine serum and 1 mg/ml G418. Transient transfections into 293 cells were performed by using the calcium phosphate technique (*).
The PYK-2 cDNA cloned in PLSV was cotransfected with pSV2neo into PC12 cells and NIH3T3 in order to establish stable cell lines. G418 resistant colonies were screened by immunoprecipitating and immunoblotting.
NIH3T3 cell lines were established that overexpress the PYK-2 and the PYK-2-HA protein. […] The level of phosphorylation is not so high.

CCCCCCCCCCCCCC(=O)O[C@@H]1[C@@H](C)[C@@]2(O)[C@@H](C=C(CO)C[C@]3(O)C(=O)C(C)=C[C@@H]23)[C@@H]2C(C)(C)[C@]12OC(C)=O [PMA, phorbol 12-myristate 13-acetate]
tyrosine phosphorylation of PYK-2 in response to the agent: stronger effect
